According to patent US8822509B2, “Pain-relieving compositions and uses therefor” (priority 2006, dated 2014):
“Also recorded” adds a separate entry of the source. Read-outs that look alike come from different tables or passages of the source. Marks after values point to notes of the source that are not given here.

Key:
[1] = target: T1, μ-opioid receptors (MOP receptors) (Mus musculus, UniProt P42866); format: cell-based
T1 construct: expressed in transfected cells; host or cells: HEK293
Procedure: Briefly, HEK-MOP cells were pre-incubated with 2% (2-hydroxypropyl)-β-cyclodextrin (βCD) for 1 h at 37° C. to deplete cholesterol from caveloae in the cell membrane. Cells were washed with DMEM and then utilized in the forskolin-stimulated cAMP assay as described above. […] Cells were washed with DMEM and then utilized in the forskolin-stimulated cAMP assay as described above.

[2] = target: T1, μ-opioid receptors (MOP receptors); format: cell-based; remark: listed apart in the source

T1 sequence (P42866 whole entry): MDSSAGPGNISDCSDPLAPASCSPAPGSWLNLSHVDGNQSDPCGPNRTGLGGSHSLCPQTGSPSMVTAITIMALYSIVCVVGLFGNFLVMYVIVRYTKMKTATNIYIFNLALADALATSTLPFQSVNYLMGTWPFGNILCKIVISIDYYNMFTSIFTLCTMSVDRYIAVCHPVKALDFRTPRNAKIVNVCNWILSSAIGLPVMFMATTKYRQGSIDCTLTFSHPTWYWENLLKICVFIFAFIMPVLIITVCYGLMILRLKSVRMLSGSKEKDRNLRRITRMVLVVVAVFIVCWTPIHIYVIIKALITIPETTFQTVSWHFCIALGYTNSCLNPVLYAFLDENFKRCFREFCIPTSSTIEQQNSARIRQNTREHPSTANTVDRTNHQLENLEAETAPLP

Structure (SMILES) | % of forskolin stimulated cyclic AMP response ([1]; Conc 10^−3 M) [%] | % of forskolin stimulated cyclic AMP response ([1]; Conc 10^−4 M) | % of forskolin stimulated cyclic AMP response ([1]; Conc 10^−5 M) | % of forskolin stimulated cyclic AMP response ([1]; Conc 10^−6 M) | % of forskolin stimulated cyclic AMP response ([1]; Conc 10^−7 M) [%] | % of forskolin stimulated cyclic AMP response ([1]; Conc 10^−8 M) | % of forskolin stimulated cyclic AMP response ([1]; Conc 10^−9 M) | % of forskolin stimulated cyclic AMP response ([1]; Conc 10^−11 M) [%] | % of forskolin stimulated cyclic AMP response ([1]; Conc 10^−13 M) | % of forskolin stimulated cyclic AMP response ([1]; Conc 10^−14 M) | % of forskolin stimulated cyclic AMP response ([1]; Conc 10^−15 M) | % of forskolin stimulated cyclic AMP response ([1]; Conc 10^−16 M) | % of forskolin stimulated cyclic AMP response ([1]; Conc 10^−17 M) | % of forskolin stimulated cyclic AMP response ([1]; Conc 10^−18 M) | % of forskolin stimulated cyclic AMP response ([2]; Conc 10^−10 M) | % of forskolin stimulated cyclic AMP response ([2]; Conc 10^−12 M) | effect on forskolin-stimulated cAMP responses ([2]; MOP-transfected HEK293 (FIG. 11))
[O-][n+]1onc(-c2ccccc2)c1-c1ccccc1 [Compound 5] | 69.6 | 99.8% | 120.4% | 142.4% | 112.7 | 73.6% | 57.7% | 76.3 | 102.3% | 105.6% | 117.0% | 91.2% | 75.8% | 68.7% | 79.2% | 119.1% | 
Nc1nc2c(nc(Br)n2[C@@H]2O[C@@H]3COP(=O)(O)O[C@H]3[C@H]2O)c(=O)[nH]1 [Compound 8-Br-cGMP, 8-Br-cGMP, reference compound] |  |  |  |  |  |  |  |  |  |  |  |  |  |  |  |  | did not inhibit forskolin-stimulated cAMP responses; also recorded: lack of effects
CCc1c(C(=O)O)no[n+]1[O-] [Compound 8] | 6.8 | 68.2% | 90.0% | 104.7% | 102.9 | 114.3% | 107.0% | 88.3 | 112.7% | 94.8% | 97.6% | 140.5% | 115.0% | 72.8% | 79.4% | 128.3% | 
Cc1c(-c2ccccc2)no[n+]1[O-] [Compound 13] | 40.2 | 67.1% | 109.4^a % | 84.5^a % | 78.8 | 80.3% | 94.9% | 66.3 | 89.6% | 99.4^a % | 101.5% | 88.3^a % | 105.3% | 61.2% | 106.9% | 108.8% | 
O=Cc1c(-c2ccccc2)no[n+]1[O-] [Compound 14] | 8.5 | 40.7^a % | 51.0^a % | 110.6^a % | 121.5 | 113.2^a % | 107.4% | 62.7 | 94.2% | 103.4^a % | 103.8% | 129.8% | 120.5% | 95.1% | 69.5% | 92.8% | 
O=C(O)c1c(-c2ccc(F)cc2)no[n+]1[O-] [Compound 18] | 7.1 | 79.0% | 97.7% | 101.0% | 91.9 | 81.7% | 142.3^a % | 77.5 | 85.4% | 85.3% | 90.4% | 89.6% | 94.1% | 54.7^a % | 83.6% | 82.2% | 
[O-][n+]1onc(-c2ccc(F)cc2)c1-c1ccc(F)cc1 [Compound 21] | 7.1 | 42.1% | 63.5% | 53.0% | 47.3 | 57.5% | 46.5% | 29.9 | 61.5% | 59.7% | 64.0% | 67.7% | 49.1% | 38.7% | 38.4% | 42.9% | 
Cc1c(-c2ccc(F)cc2)no[n+]1[O-] [Compound 23] | 46.6 | 121.2% | 66.2% | 90.0% | 89.0 | 98.2% | 64.0% | 75.7 | 87.6% | 79.2% | 80.4% | 77.1% | 73.6% | 80.2% | 56.5% | 74.7% | 
COc1ccc(-c2no[n+]([O-])c2C)cc1 [Compound 24] | 71.2 | 106.7^a % | 131.1^a % | 56.7% | 94.3 | 53.8^a % | 132.4% | 79.4 | 82.3% | 75.1% | 97.0^a % | 88.0% | 70.0% | 70.0% | 60.2% | 90.1% | 
CC(=O)c1c(-c2ccccc2)no[n+]1[O-] [Compound 27] | 22.4 | 73.8^a % | 128.2% | 60.0% | 83.2 | 86.4% | 56.4% | 84.4 | 88.3^a % | 78.2% | 115.4% | 162.4% | 108.6^a % | 56.5% | 46.0% | 66.7^a % | 
[O-][n+]1onc(-c2ccccc2)c1CO [Compound 31] | 3.8 | 182.4^a % | 96.9^a % | 60.0^a % | 108.4 | 36.2^a % | 76.8^a % | 61.0 | 85.7% | 77.5^a % | 42.2^a % | 54.8% | 48.5^a % | 94.5% | 42.8^a % | 81.4% | 
